Patent EP0828725B1, “PROCESS FOR THE RECOVERY OF ASCORBIC ACID” (YISSUM RESEARCH DEVELOPMENT COMPANY OF THE HEBREW …, priority 1995, dated 1996)

What was measured:
[1] = Temperature sensitivity of carboxylic acid extraction by 0.5 mol/kg Alamine 304 + 10% octanol in kerosene; type: physicochemical; details: distribution coefficient at 30°C divided by that at 75°C; for TS in Equilibrium with Aqueous Solutions of (mol/kg) 0.05: aqueous phase 0.05 mol/kg; for TS in Equilibrium with Aqueous Solutions of (mol/kg) 0.2: aqueous phase 0.2 mol/kg; for TS in Equilibrium with Aqueous Solutions of (mol/kg) 0.3: aqueous phase 0.3 mol/kg; for TS in Equilibrium with Aqueous Solutions of (mol/kg) 0.475: aqueous phase 0.475 mol/kg
Text: Referring now to said patents and the teachings thereof, one finds that the process taught therein utilizes the effect of temperature on phosphoric and carboxylic acid extraction by amine-based extractants. The term "amine" as used herein means water-immiscible amine, with a total of at least 20 carbon atoms on its chains. Said patents teach that such amine-based extractants (ABE) lose much of their extraction efficiency upon temperature elevation. This loss of efficiency is referred to as "temperature sensitivity of extraction" (TS). The magnitude of this TS can be represented by the ratio of the distribution coefficient at the lower temperature (DT1) and the distribution coefficient at the higher temperature (DT2). High TS provides for the purification and the concentration of carboxylic acids through altering the temperature between extraction and back-extraction. The acid is extracted from the fermentation liquor by an ABE at low temperature, and is then back-extracted with water at an elevated temperature. The aqueous solution obtained from that back-extraction is, in many cases, more concentrated than in the fermentation liquor. This process is referred to herein as the "temperature swing process" (TSP). The attraction of such processes is in the fact that the sole energy consumption is that of sensible heat, which saves a lot of the latent heat of water evaporation in the final concentration.

[2] = Distribution curves, extractant 1.2 mol/kg tricaprylyl amine (50%) and 3.8 mol/kg octanol (50%) (Fig. 3); type: physicochemical; details: extraction at 25°C and back-extraction at 96°C
Method: Fig. 3 illustrates distribution curves for extraction by an extractant composed of 1.2 mol/kg tricaprylyl amine (50%) and 3.8 mol/kg octanol (50%). The loading of the extractant in contact with 0.2 mol/kg ascorbic acid containing aqueous solution is about 0.5 mol/kg. […] The effect is even more impressive at the low concentrations end. […] A concentration factor of about 4 can be reached on extraction at 25°C and back-extraction at 96°C.

[3] = cited from earlier work
[4] = Extraction at 25°C and stripping at about 96°C with 50% w/w tridodecylamine and 50% w/w 1-n-octanol, recycled extractant; type: physicochemical; details: practically complete extraction with recycled extractant; feed 0.22 mol/kg
Method: […]. […] […]. The extractant was composed of 50% w/w tridodecylamine and 50% w/w of 1-n-octanol. The extraction was conducted at 25°C and the stripping at about 96°C.
Extraction as in Example 12 (100 g aqueous, 40 g extractant, 3 countercurrent stages) results in practically complete extraction of the acid to form an extract (loaded extractant) comprising 5% w/w lactic acid. […]. About two-thirds of the extracted lactic acid stays in the organic phase. Re-use of this organic phase in extraction from 2% lactic acid solutions results in low yields; not more than 20% of the acid is extracted. Increasing the number of stages in extraction has only a small effect. Near complete stripping and thus high yield in re-use of the organic phase requires about 150 g water per 40 g of extract, and 6-7 countercurrent stages. […]
Stripping the extract at 96°C with 35 g water results in an aqueous solution comprising 0.6 mol/kg ascorbic acid and an organic phase practically free of ascorbic acid. Re-use of this organic phase in extraction provides an extraction yield of at least 95% at the above conditions.

[5] = Distribution curves, extractant 1.2 mol/kg tricaprylyl amine and 2.4 mol/kg octanol in kerosene (Fig. 2); type: physicochemical; details: temperature gradient of 25-80°C

SMILES | TS in Equilibrium with Aqueous Solutions of (mol/kg) 0.05 [1] | TS in Equilibrium with Aqueous Solutions of (mol/kg) 0.2 [1] | TS in Equilibrium with Aqueous Solutions of (mol/kg) 0.3 [1] | TS in Equilibrium with Aqueous Solutions of (mol/kg) 0.475 [1] | temperature sensitivity [2] | product diluted compared with the feed [4] [times] | uphill concentration factor [5] | pKa [3]
O=C(O)CC(O)(CC(=O)O)C(=O)O [Citric, citric acid] | 6.0 | 3.1 | 2.6 | 2.2 | Practically no temperature sensitivity | – | – | –
O=C(O)[C@H](O)[C@@H](O)[C@H](O)[C@H](O)CO [Gluconic] | 2.1 | 2.3 | 2.4 | 2.6 | – | – | – | –
O=C(O)CCCC(=O)O [Glutaric] | 3.9 | 4.5 | 4.5 | 4.4 | – | – | – | 4.4
CC(C)C(=O)O [Isobutyric] | 1.9 | 1.5 | 1.4 | 1.1 | – | – | – | –
CC(O)C(=O)O (stereo not drawn) [Lactic, lactic acid] | 2.5 | 2.4 | 2.4 | 2.2 | – | 4 | – | –
O=C(O)/C=C\C(=O)O [Maleic] | 1.1 | 1.0 | 1.0 | 1.0 | – | – | – | –

Continued, in another order:

TS in Equilibrium with Aqueous Solutions of (mol/kg) 0.05 [1] | TS in Equilibrium with Aqueous Solutions of (mol/kg) 0.2 [1] | TS in Equilibrium with Aqueous Solutions of (mol/kg) 0.3 [1] | TS in Equilibrium with Aqueous Solutions of (mol/kg) 0.475 [1] | temperature sensitivity [2] | product diluted compared with the feed [4] [times] | uphill concentration factor [5] | SMILES | pKa [3]
4.0 | 4.3 | 4.0 | 4.0 | – | – | – | O=C(O)CC(O)C(=O)O (stereo not drawn) [Malic] | 3.22
3.6 | 1.5 | 1.3 | 1.1 | – | – | – | O=C(O)CC(=O)O [Malonic] | –
4.3 | 4.0 | 4.0 | 4.1 | – | – | about 2 | O=C(O)CCC(=O)O [Succinic, succinic acid] | –
3.4 | 3.2 | 2.7 | 2.4 | – | – | – | O=C(O)C(O)C(O)C(=O)O (stereo not drawn) [Tartaric] | –
